The record followed here is patent publication EP1345943B1, “INHIBITORS OF PAPILLOMA VIRUS” (BOEHRINGER INGELHEIM (CANADA) LTD., priority 2000, dated 2002).

As a reminder, the pIC50 is −log10 of the IC50, conventionally taken in molar units. Low values mean a high IC50, high ones a low IC50.

pIC50: −log10 of the molar value.

This experiment addresses E1-E2-DNA complex (Human papillomavirus 11, UniProt P04015). The experiment can be described thus: E2-dependent E1 DNA binding assay (E1-E2 DNA assay). The following applies: E1-E2 DNA assay of Example 11, HPV-11. A digest of the protocol: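 SPA-format binding of E1 (about 100-200 ng purified) and E2 (8 ng) to a 0.4 ng [33P]-labelled 400 bp HPV-11 origin probe, in 20 mM Tris pH 7.6, 100 mM NaCl, 1 mM DTT, 1 mM EDTA, for 1 h at room temperature. Complex captured 1 h with anti-E1 C-terminal antiserum on protein A-SPA beads and counted by scintillation; IC50 derived.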

Chain of E1-E2-DNA complex (P04015 whole entry, one chain of several): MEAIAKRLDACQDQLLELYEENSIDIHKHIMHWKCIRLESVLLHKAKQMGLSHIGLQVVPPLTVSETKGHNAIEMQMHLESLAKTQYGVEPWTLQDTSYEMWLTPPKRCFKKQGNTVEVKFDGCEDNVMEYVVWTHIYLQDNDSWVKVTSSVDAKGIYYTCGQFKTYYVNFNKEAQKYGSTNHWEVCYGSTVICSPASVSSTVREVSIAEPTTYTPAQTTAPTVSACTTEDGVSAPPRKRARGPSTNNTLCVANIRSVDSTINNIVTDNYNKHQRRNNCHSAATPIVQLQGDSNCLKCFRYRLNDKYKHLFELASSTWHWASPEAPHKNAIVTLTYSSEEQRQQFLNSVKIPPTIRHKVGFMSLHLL

`O=C(Nc1ccc2c(c1)OCO2)C1C(c2ccc(Cl)c(Cl)c2)OC2(C(=O)c3cccc(F)c3C2=O)C1C(=O)O` (stereo not drawn) [Compound 1051] showed a pIC50 of 5.30 to 6.30.

As to `O=C1C2C(c3ccc(Br)c(Br)c3)OC3(C(=O)c4ccccc4C3=O)C2C(=O)N1c1ccc(N2CCOCC2)cc1` (stereo not drawn) [Compound 2023], the negative-log IC50 (pIC50) is > 6.30.

As for `O=C(Nc1ccc2c(c1)OCO2)C1C(c2ccc3c(c2)OCO3)OC2(C(=O)c3ccccc3C2=O)C1C(=O)O` (stereo not drawn) [Compound 4003], the negative logarithm of the IC50 (pIC50) was 4.30 to 5.30.
